# Source: ChEMBL document CHEMBL1681728, “An automated, polymer-assisted strategy for the preparation of urea and thiourea derivatives of 15-membered azalides as potential antimalarial chemotherapeutics” (Bioorg Med Chem, 2011)
# What was measured:
# Format in all cases: functional, organism-based
# Plasmodium falciparum [1] = assay: Antimalarial activity against multidrug-resistant Plasmodium falciparum TM91C235 assessed as inhibition of [3H]hypoxanthine incorporation after 96 hrs by microtiter plate scintillation counting
# Plasmodium falciparum [2] = assay: Antimalarial activity against chloroquine-,pyrimethamine-resistant Plasmodium falciparum W2 assessed as inhibition of [3H]hypoxanthine incorporation after 96 hrs by microtiter plate scintillation counting
# Plasmodium falciparum [3] = assay: Antimalarial activity against chloroquine-sensitive Plasmodium falciparum D6 assessed as inhibition of [3H]hypoxanthine incorporation after 96 hrs by microtiter plate scintillation counting
SMILES,IC50 (Plasmodium falciparum [1]) [nM],IC50 (Plasmodium falciparum [2]) [nM],IC50 (Plasmodium falciparum [3]) [nM]
CC[C@H]1OC(=O)[C@H](C)[C@@H](O[C@H]2C[C@@](C)(OC)[C@@H](O)[C@H](C)O2)[C@H](C)[C@@H](O[C@@H]2O[C@H](C)C[C@H](N(C)C)[C@H]2O)[C@](C)(O)C[C@@H](C)CN(CCCNC(=O)Nc2cc(F)ccc2C)[C@H](C)[C@@H](O)[C@]1(C)O,117,53.2,396
CC[C@H]1OC(=O)[C@H](C)[C@@H](O[C@H]2C[C@@](C)(OC)[C@@H](O)[C@H](C)O2)[C@H](C)[C@@H](O[C@@H]2O[C@H](C)C[C@H](N(C)C)[C@H]2O)[C@](C)(O)C[C@@H](C)CN(CCCNC(=S)Nc2cccnc2)[C@H](C)[C@@H](O)[C@]1(C)O,801,1200,1210
CC[C@H]1OC(=O)[C@H](C)[C@@H](O[C@H]2C[C@@](C)(OC)[C@@H](O)[C@H](C)O2)[C@H](C)[C@@H](O[C@@H]2O[C@H](C)C[C@H](N(C)C)[C@H]2O)[C@](C)(O)C[C@@H](C)CN(CCCNC(=S)Nc2ccc(Cl)c(Cl)c2)[C@H](C)[C@@H](O)[C@]1(C)O,84.2,229,296
CC[C@H]1OC(=O)[C@H](C)[C@@H](O[C@H]2C[C@@](C)(OC)[C@@H](O)[C@H](C)O2)[C@H](C)[C@@H](O[C@@H]2O[C@H](C)C[C@H](N(C)C)[C@H]2O)[C@](C)(O)C[C@@H](C)CN(CCCNC(=S)Nc2ccc(Cl)c(C(F)(F)F)c2)[C@H](C)[C@@H](O)[C@]1(C)O,56.3,35,54.3
CC[C@H]1OC(=O)[C@H](C)[C@@H](O[C@H]2C[C@@](C)(OC)[C@@H](O)[C@H](C)O2)[C@H](C)[C@@H](O[C@@H]2O[C@H](C)C[C@H](N(C)C)[C@H]2O)[C@](C)(O)C[C@@H](C)CN(CCCNC(=O)Nc2cccc(Cl)c2)[C@H](C)[C@@H](O)[C@]1(C)O,118,187,455
CC[C@H]1OC(=O)[C@H](C)[C@@H](O[C@H]2C[C@@](C)(OC)[C@@H](O)[C@H](C)O2)[C@H](C)[C@@H](O[C@@H]2O[C@H](C)C[C@H](N(C)C)[C@H]2O)[C@](C)(O)C[C@@H](C)CN(CCCNC(=O)Nc2cc(C)oc2C(F)(F)F)[C@H](C)[C@@H](O)[C@]1(C)O,320,310,361
CC[C@H]1OC(=O)[C@H](C)[C@@H](O[C@H]2C[C@@](C)(OC)[C@@H](O)[C@H](C)O2)[C@H](C)[C@@H](O[C@@H]2O[C@H](C)C[C@H](N(C)C)[C@H]2O)[C@](C)(O)C[C@@H](C)CN(C)[C@H](C)[C@@H](O)[C@]1(C)O [AZITHROMYCIN],2060,2240,1020
CC[C@H]1OC(=O)[C@H](C)[C@@H](O[C@H]2C[C@@](C)(OC)[C@@H](O)[C@H](C)O2)[C@H](C)[C@@H](O[C@@H]2O[C@H](C)C[C@H](N(C)C)[C@H]2O)[C@](C)(O)C[C@@H](C)CN(CCCNC(=O)Nc2c(C)noc2-c2ccccc2)[C@H](C)[C@@H](O)[C@]1(C)O,492,734,936
CC[C@H]1OC(=O)[C@H](C)[C@@H](O[C@H]2C[C@@](C)(OC)[C@@H](O)[C@H](C)O2)[C@H](C)[C@@H](O[C@@H]2O[C@H](C)C[C@H](N(C)C)[C@H]2O)[C@](C)(O)C[C@@H](C)CN(CCCNC(=O)NC2CCCCC2)[C@H](C)[C@@H](O)[C@]1(C)O,411,185,1960
CC[C@H]1OC(=O)[C@H](C)[C@@H](O[C@H]2C[C@@](C)(OC)[C@@H](O)[C@H](C)O2)[C@H](C)[C@@H](O[C@@H]2O[C@H](C)C[C@H](N(C)C)[C@H]2O)[C@](C)(O)C[C@@H](C)CN(CCCNC(=O)NCc2ccc(OC)cc2)[C@H](C)[C@@H](O)[C@]1(C)O,484,204,1620
CC[C@H]1OC(=O)[C@H](C)[C@@H](O[C@H]2C[C@@](C)(OC)[C@@H](O)[C@H](C)O2)[C@H](C)[C@@H](O[C@@H]2O[C@H](C)C[C@H](N(C)C)[C@H]2O)[C@](C)(O)C[C@@H](C)CN(CCCNC(=S)Nc2ccc(OCc3ccccc3)cc2)[C@H](C)[C@@H](O)[C@]1(C)O,160,88.9,249
CC[C@H]1OC(=O)[C@H](C)[C@@H](O[C@H]2C[C@@](C)(OC)[C@@H](O)[C@H](C)O2)[C@H](C)[C@@H](O[C@@H]2O[C@H](C)C[C@H](N(C)C)[C@H]2O)[C@](C)(O)C[C@@H](C)CN(CCCNC(=S)Nc2c(F)cccc2F)[C@H](C)[C@@H](O)[C@]1(C)O,188,86.3,509
CC[C@H]1OC(=O)[C@H](C)[C@@H](O[C@H]2C[C@@](C)(OC)[C@@H](O)[C@H](C)O2)[C@H](C)[C@@H](O[C@@H]2O[C@H](C)C[C@H](N(C)C)[C@H]2O)[C@](C)(O)C[C@@H](C)CN(CCCNC(=S)Nc2cccc3nsnc23)[C@H](C)[C@@H](O)[C@]1(C)O,101,88.2,176
CC[C@H]1OC(=O)[C@H](C)[C@@H](O[C@H]2C[C@@](C)(OC)[C@@H](O)[C@H](C)O2)[C@H](C)[C@@H](O[C@@H]2O[C@H](C)C[C@H](N(C)C)[C@H]2O)[C@](C)(O)C[C@@H](C)CN(CCCNC(=O)NCc2ccco2)[C@H](C)[C@@H](O)[C@]1(C)O,496,287,5610
CC[C@H]1OC(=O)[C@H](C)[C@@H](O[C@H]2C[C@@](C)(OC)[C@@H](O)[C@H](C)O2)[C@H](C)[C@@H](O[C@@H]2O[C@H](C)C[C@H](N(C)C)[C@H]2O)[C@](C)(O)C[C@@H](C)CN(CCCNC(=O)Nc2ccc3c(c2)CCC3)[C@H](C)[C@@H](O)[C@]1(C)O,96.2,73.6,266
CC[C@H]1OC(=O)[C@H](C)[C@@H](O[C@H]2C[C@@](C)(OC)[C@@H](O)[C@H](C)O2)[C@H](C)[C@@H](O[C@@H]2O[C@H](C)C[C@H](N(C)C)[C@H]2O)[C@](C)(O)C[C@@H](C)CN(CCCNC(=S)NCC23CC4CC(CC(C4)C2)C3)[C@H](C)[C@@H](O)[C@]1(C)O,152,210,553
CC[C@H]1OC(=O)[C@H](C)[C@@H](O[C@H]2C[C@@](C)(OC)[C@@H](O)[C@H](C)O2)[C@H](C)[C@@H](O[C@@H]2O[C@H](C)C[C@H](N(C)C)[C@H]2O)[C@](C)(O)C[C@@H](C)CN(CCCNC(=O)NCC2CCCCC2)[C@H](C)[C@@H](O)[C@]1(C)O,142,113,610
CCCCNC(=O)NCCCN1C[C@H](C)C[C@@](C)(O)[C@H](O[C@@H]2O[C@H](C)C[C@H](N(C)C)[C@H]2O)[C@@H](C)[C@H](O[C@H]2C[C@@](C)(OC)[C@@H](O)[C@H](C)O2)[C@@H](C)C(=O)O[C@H](CC)[C@@](C)(O)[C@H](O)[C@H]1C,820,370,5800
CC[C@H]1OC(=O)[C@H](C)[C@@H](O[C@H]2C[C@@](C)(OC)[C@@H](O)[C@H](C)O2)[C@H](C)[C@@H](O[C@@H]2O[C@H](C)C[C@H](N(C)C)[C@H]2O)[C@](C)(O)C[C@@H](C)CN(CCCNC(=O)NC2CCN(C(=O)OCc3ccccc3)CC2)[C@H](C)[C@@H](O)[C@]1(C)O,236,276,635
CCCCNC(=S)NCCCN1C[C@H](C)C[C@@](C)(O)[C@H](O[C@@H]2O[C@H](C)C[C@H](N(C)C)[C@H]2O)[C@@H](C)[C@H](O[C@H]2C[C@@](C)(OC)[C@@H](O)[C@H](C)O2)[C@@H](C)C(=O)O[C@H](CC)[C@@](C)(O)[C@H](O)[C@H]1C,382,188,655
CC[C@H]1OC(=O)[C@H](C)[C@@H](O[C@H]2C[C@@](C)(OC)[C@@H](O)[C@H](C)O2)[C@H](C)[C@@H](O[C@@H]2O[C@H](C)C[C@H](N(C)C)[C@H]2O)[C@](C)(O)C[C@@H](C)CN(CCCNC(=O)Nc2ccc(C(F)(F)F)cc2)[C@H](C)[C@@H](O)[C@]1(C)O,84.2,74.6,160
CC[C@H]1OC(=O)[C@H](C)[C@@H](O[C@H]2C[C@@](C)(OC)[C@@H](O)[C@H](C)O2)[C@H](C)[C@@H](O[C@@H]2O[C@H](C)C[C@H](N(C)C)[C@H]2O)[C@](C)(O)C[C@@H](C)CN(CCCNC(=S)Nc2ccc(Br)cc2)[C@H](C)[C@@H](O)[C@]1(C)O,173,169,261
CC[C@H]1OC(=O)[C@H](C)[C@@H](O[C@H]2C[C@@](C)(OC)[C@@H](O)[C@H](C)O2)[C@H](C)[C@@H](O[C@@H]2O[C@H](C)C[C@H](N(C)C)[C@H]2O)[C@](C)(O)C[C@@H](C)CN(CCCNC(=S)Nc2ccc([N+](=O)[O-])cc2)[C@H](C)[C@@H](O)[C@]1(C)O,51.3,37.1,103
CC[C@H]1OC(=O)[C@H](C)[C@@H](O[C@H]2C[C@@](C)(OC)[C@@H](O)[C@H](C)O2)[C@H](C)[C@@H](O[C@@H]2O[C@H](C)C[C@H](N(C)C)[C@H]2O)[C@](C)(O)C[C@@H](C)CN(CCCNC(=O)Nc2cccc(C(F)(F)F)c2)[C@H](C)[C@@H](O)[C@]1(C)O,72.8,135,257
CC[C@H]1OC(=O)[C@H](C)[C@@H](O[C@H]2C[C@@](C)(OC)[C@@H](O)[C@H](C)O2)[C@H](C)[C@@H](O[C@@H]2O[C@H](C)C[C@H](N(C)C)[C@H]2O)[C@](C)(O)C[C@@H](C)CN(CCCNC(=S)NCCN2CCCCC2)[C@H](C)[C@@H](O)[C@]1(C)O,3030,3300,9290
CC[C@H]1OC(=O)[C@H](C)[C@@H](O[C@H]2C[C@@](C)(OC)[C@@H](O)[C@H](C)O2)[C@H](C)[C@@H](O[C@@H]2O[C@H](C)C[C@H](N(C)C)[C@H]2O)[C@](C)(O)C[C@@H](C)CN(CCCNC(=S)Nc2ccc(OC(F)F)cc2)[C@H](C)[C@@H](O)[C@]1(C)O,121,63,216
